Type in all cases: functional
The test system of assay [1] is Staphylococcus aureus. In words: Antibacterial activity against Staphylococcus aureus ATCC 29213 assessed as inhibition of bacterial growth measured for 18 to 24 hrs by broth dilution method. Conditions: time 18-24 hrs. (In general: In broth dilution the organism is exposed to a series of concentrations in liquid medium.)
Assay [2] concerns Mycobacterium tuberculosis. In words: Antimycobacterial activity against Mycobacterium tuberculosis H37Rv ATCC 27294 assessed as inhibition of bacterial growth incubated for 18 to 24 hrs by broth dilution method.
Assay [3] relates to Mycobacterium tuberculosis. In words: Antimycobacterial activity against isoniazid-resisitant Mycobacterium tuberculosis ATCC 35822 assessed as inhibition of bacterial growth incubated for 18 to 24 hrs by broth dilution method. The note with it: time 18-24 hrs.
The test system of assay [4] is Mycobacterium tuberculosis. In words: Antimycobacterial activity against ethambutol-resisitant Mycobacterium tuberculosis ATCC 35837 assessed as inhibition of bacterial growth incubated for 18 to 24 hrs by broth dilution method. The note with it: time 18-24 hrs.
Assay [5] has as its system Mycobacterium tuberculosis. In words: Antimycobacterial activity against streptomycin-resisitant Mycobacterium tuberculosis ATCC 35820 assessed as inhibition of bacterial growth incubated for 18 to 24 hrs by broth dilution method. The note with it: time 18-24 hrs.
The test system of assay [6] is Mycobacterium tuberculosis. In words: Antimycobacterial activity against rifampicin-resisitant Mycobacterium tuberculosis ATCC 35838 assessed as inhibition of bacterial growth incubated for 18 to 24 hrs by broth dilution method. The note with it: time 18-24 hrs.

Results on 60 compounds are retold here after ChEMBL document CHEMBL5329155, “Synthesis and pharmacological evaluation of 1,3-diaryl substituted pyrazole based (thio)urea derivatives as potent antimicrobial agents against multi-drug resistant Staphylococcus aureus and Mycobacterium tuberculosis” (RSC Med Chem, 2023).

In brackets after ≈: the same amount, converted by molar mass. Where only a bound is given, the exact number is not on record here.

Consider `COc1ccc(-c2ccn(-c3ccc(NC(=O)Nc4cccc(Cl)c4)cc3)n2)cc1OC`, for which the MIC – broadly, the smallest concentration in the dilution series that meets the test's criterion for growth inhibition – was found to be 2 µg/mL (≈ 4.46 µM) in assay [1] and 16 µg/mL (≈ 35.6 µM) in assay [2].
In the same order, the values of `O=C(NCc1ccccc1)Nc1ccc(-n2ccc(-c3ccc(Cl)cc3Cl)n2)cc1` are above 64 µg/mL and 64 µg/mL (≈ 146 µM).
Regarding `CC[C@@H](CO)NCCN[C@@H](CC)CO` [ETHAMBUTOL], the MIC stood at 2 µg/mL (≈ 9.79 µM) in assay [2]; 4 µg/mL (≈ 19.6 µM) in assay [3]; 32 µg/mL (≈ 157 µM) in assay [4]; 2 µg/mL (≈ 9.79 µM) in assay [5]; 2 µg/mL (≈ 9.79 µM) in assay [6].
As for `O=C(NCc1ccccc1)Nc1ccc(-n2ccc(-c3ccccc3)n2)cc1`, the MIC in assay [1] and in assay [2] was above 64 µg/mL each time.
On to `COc1ccc(-c2ccn(-c3ccc(NC(=O)Nc4cccc(C(F)(F)F)c4)cc3)n2)cc1OC`, for which the results for the MIC in assay [1] and in assay [2] were above 64 µg/mL and 8 µg/mL (≈ 16.6 µM), respectively.
In the same order, the values of `COc1ccc(NC(=S)Nc2ccc(-n3ccc(-c4ccc(OC)c(OC)c4)n3)cc2)c(OC)c1` are above 64 µg/mL and 32 µg/mL (≈ 65.2 µM).
In the same order, the values of `COc1ccc(-c2ccn(-c3ccc(NC(=S)Nc4cccc(Br)c4)cc3)n2)cc1OC` are 64 µg/mL (≈ 126 µM) and 16 µg/mL (≈ 31.4 µM).
In the case of `O=C(Nc1ccc(-n2ccc(-c3ccc(Cl)cc3)n2)cc1)Nc1ccc(F)cc1F`, the minimal inhibitory concentration (MIC) in assay [1] and in assay [2] was above 64 µg/mL each time.
For the compound `O=C(Nc1ccc(-n2ccc(-c3ccc(Cl)cc3)n2)cc1)Nc1ccc(Cl)c(Cl)c1`, the MIC in assay [1] was above 64 µg/mL; in assay [2] it was 8 µg/mL (≈ 17.5 µM).
In the same order, the values of `O=C(NCc1ccccc1)Nc1ccc(-n2ccc(-c3ccc(Cl)cc3)n2)cc1` are above 64 µg/mL and above 64 µg/mL.
With `O=C(Nc1ccc(-n2ccc(-c3ccc(Cl)cc3Cl)n2)cc1)Nc1ccc(F)cc1F`, the MIC in assay [1] and in assay [2] was above 64 µg/mL throughout.
Consider `COc1ccc(-c2ccn(-c3ccc(NC(=S)Nc4cc(C)cc(C)c4)cc3)n2)cc1OC`, for which the MIC was above 64 µg/mL in assay [1] and 8 µg/mL (≈ 17.4 µM) in assay [2].
For `COc1ccc(-c2ccn(-c3ccc(NC(=O)Nc4ccccc4C)cc3)n2)cc1OC`, the values for the MIC in assay [1] and in assay [2] were above 64 µg/mL and 16 µg/mL (≈ 37.3 µM), respectively.
In the same order, the values of `COc1ccc(-c2ccn(-c3ccc(NC(=O)Nc4cc(Cl)ccc4Cl)cc3)n2)cc1OC` are above 64 µg/mL and above 64 µg/mL.
Turning to `COc1ccc(-c2ccn(-c3ccc(NC(=S)NC4CCCCC4)cc3)n2)cc1OC`, the MIC in assay [1] is above 64 µg/mL; in assay [2], 16 µg/mL (≈ 36.6 µM).
In the same order, the values of `COc1ccc(-c2ccn(-c3ccc(NC(=O)Nc4ccc(Cl)c(Cl)c4)cc3)n2)cc1` are above 64 µg/mL and 32 µg/mL (≈ 70.6 µM).
For `COc1ccc(-c2ccn(-c3ccc(NC(=O)Nc4ccccc4)cc3)n2)cc1OC`, in that order: above 64 µg/mL and 8 µg/mL (≈ 19.3 µM).
For `COc1ccccc1NC(=O)Nc1ccc(-n2ccc(-c3ccc(OC)c(OC)c3)n2)cc1`, in that order: above 64 µg/mL and 32 µg/mL (≈ 72 µM).
As to `COc1ccc(-c2ccn(-c3ccc(NC(=S)Nc4ccc(C)cc4)cc3)n2)cc1OC`, the MIC in assay [1] is above 64 µg/mL; in assay [2] it was 64 µg/mL (≈ 144 µM).
On to `COc1ccc(-c2cn(-c3ccc(NC(=O)Nc4ccc(F)cc4F)cc3)nn2)cc1OC`, for which the MIC was above 64 µg/mL in assay [1] and 8 µg/mL (≈ 17.7 µM) in assay [2].
For `COc1cccc(NC(=S)Nc2ccc(-n3ccc(-c4ccc(OC)c(OC)c4)n3)cc2)c1`, in that order: above 64 µg/mL and 16 µg/mL (≈ 34.7 µM).
On to `COc1ccc(-c2ccn(-c3ccc(NC(=S)NCc4ccccc4)cc3)n2)cc1OC`, for which the values for the MIC in assay [1] and in assay [2] were above 64 µg/mL and 8 µg/mL (≈ 18 µM), respectively.
In the case of `O=C(Nc1ccc(-n2ccc(-c3ccccc3)n2)cc1)Nc1ccc(Cl)c(Cl)c1`, the MIC is above 64 µg/mL in assay [1] and 64 µg/mL (≈ 151 µM) in assay [2].
In the same order, the values of `COc1cc(-c2ccn(-c3ccc(NC(=O)Nc4ccc(F)cc4F)cc3)n2)cc(OC)c1OC` are above 64 µg/mL and 8 µg/mL (≈ 16.7 µM).
For `COc1ccc(-c2ccn(-c3ccc(NC(=O)Nc4cccc(Cl)c4Cl)cc3)n2)cc1OC`, in that order: above 64 µg/mL and 16 µg/mL (≈ 33.1 µM).
Turning to `O=C(Nc1ccc(-n2ccc(-c3cccnc3)n2)cc1)Nc1ccc(F)cc1F`, the MIC in assay [1] was above 64 µg/mL; in assay [2], 8 µg/mL (≈ 20.4 µM).
In the same order, the values of `COc1ccc(NC(=S)Nc2ccc(-n3ccc(-c4ccc(OC)c(OC)c4)n3)cc2)cc1` are above 64 µg/mL and 8 µg/mL (≈ 17.4 µM).
Take `COc1ccc(-c2ccn(-c3ccc(NC(=O)Nc4ccc(F)cc4F)cc3)n2)cc1`: the MIC in assay [1] was above 64 µg/mL; in assay [2], 8 µg/mL (≈ 19 µM).
For the compound `COc1ccc(-c2ccn(-c3ccc(NC(=S)Nc4ccc(F)cc4F)cc3)n2)cc1OC`, the MIC in assay [1] was above 64 µg/mL; in assay [2], 16 µg/mL (≈ 34.3 µM).
For `O=C(NCc1ccccc1)Nc1ccc(-n2ccc(-c3cccnc3)n2)cc1`, in that order: above 64 µg/mL and 8 µg/mL (≈ 21.7 µM).
On to `COc1ccc(-c2ccn(-c3ccc(NC(=S)Nc4ccc(C#N)cc4)cc3)n2)cc1OC`, for which the MIC was above 64 µg/mL in assay [1] and 32 µg/mL (≈ 70.2 µM) in assay [2].
In the case of `COc1ccc(-c2ccn(-c3ccc(NC(=S)Nc4cccc(Cl)c4)cc3)n2)cc1OC`, the figures for the MIC in assay [1] and in assay [2] were above 64 µg/mL and 16 µg/mL (≈ 34.4 µM), respectively.
For `O=C(Nc1ccc(-n2ccc(-c3ccccc3)n2)cc1)Nc1ccc(F)cc1F`, in that order: above 64 µg/mL and above 64 µg/mL.
In the same order, the values of `COc1ccc(-c2ccn(-c3ccc(NC(=S)Nc4ccc(F)c(Cl)c4)cc3)n2)cc1OC` are above 64 µg/mL and 16 µg/mL (≈ 33.1 µM).
Consider `COc1cc(-c2ccn(-c3ccc(NC(=O)Nc4ccc(Cl)c(Cl)c4)cc3)n2)cc(OC)c1OC`, for which the MIC in assay [1] and in assay [2] was above 64 µg/mL in each case.
Take `COc1ccc(-c2ccn(-c3ccc(NC(=O)Nc4ccc(Cl)c(C(F)(F)F)c4)cc3)n2)cc1OC`: the values for the MIC in assay [1] and in assay [2] were 2 µg/mL (≈ 3.87 µM) and 4 µg/mL (≈ 7.74 µM), respectively.
For `O=C(Nc1ccc(-n2ccc(-c3cccnc3)n2)cc1)Nc1ccc(Cl)c(Cl)c1`, in that order: above 64 µg/mL and 16 µg/mL (≈ 37.7 µM).
Consider `COc1ccc(-c2ccn(-c3ccc(NC(=S)Nc4ccc([N+](=O)[O-])cc4)cc3)n2)cc1OC`, for which the MIC in assay [1] is above 64 µg/mL; in assay [2], 16 µg/mL (≈ 33.6 µM).
In the same order, the values of `O=C(Nc1ccc(-n2ccc(-c3ccc4ccccc4c3)n2)cc1)Nc1ccc(F)cc1F` are above 64 µg/mL and above 64 µg/mL.
Regarding `Cc1ccc(-c2ccn(-c3ccc(NC(=O)NCc4ccccc4)cc3)n2)cc1`, the MIC in assay [1] and in assay [2] was above 64 µg/mL throughout.
For the compound `COc1ccc(-c2ccn(-c3ccc(NC(=O)NCc4ccccc4)cc3)n2)cc1`, the MIC in assay [1] and in assay [2] was above 64 µg/mL throughout.
Regarding `Cc1ccc(-c2ccn(-c3ccc(NC(=O)Nc4ccc(F)cc4F)cc3)n2)cc1`, the MIC in assay [1] and in assay [2] was above 64 µg/mL each time.
`COc1ccc(-c2ccn(-c3ccc(NC(=S)Nc4cccc5ccccc45)cc3)n2)cc1OC`: the MIC in assay [1] was above 64 µg/mL; in assay [2], 16 µg/mL (≈ 33.3 µM).
In the same order, the values of `CCCCCCCNC(=S)Nc1ccc(-n2ccc(-c3ccc(OC)c(OC)c3)n2)cc1` are above 64 µg/mL and 4 µg/mL (≈ 8.84 µM).
In the same order, the values of `COc1ccc(-c2ccn(-c3ccc(NC(=S)Nc4ccc(C(F)(F)F)cc4)cc3)n2)cc1OC` are 2 µg/mL (≈ 4.01 µM) and 2 µg/mL (≈ 4.01 µM).
Turning to `Cc1ccc(-c2ccn(-c3ccc(NC(=O)Nc4ccc(Cl)c(Cl)c4)cc3)n2)cc1`, the MIC in assay [1] and in assay [2] was above 64 µg/mL throughout.
`O=C(Nc1ccc(-n2ccc(-c3ccc(Cl)cc3Cl)n2)cc1)Nc1ccc(Cl)c(Cl)c1`: the MIC in assay [1] and in assay [2] was above 64 µg/mL throughout.
Turning to `COc1ccc(-c2cn(-c3ccc(NC(=O)Nc4ccc(Cl)c(Cl)c4)cc3)nn2)cc1OC`, the MIC in assay [1] is 4 µg/mL (≈ 8.26 µM); in assay [2], above 64 µg/mL.
Take `COc1ccc(-c2ccn(-c3ccc(NC(=O)NS(=O)(=O)c4ccccc4)cc3)n2)cc1OC`: the MIC is above 64 µg/mL in assay [1] and 16 µg/mL (≈ 33.4 µM) in assay [2].
For `COc1ccc(-c2ccn(-c3ccc(NC(=O)Nc4c(C)cccc4C)cc3)n2)cc1OC`, in that order: above 64 µg/mL and above 64 µg/mL.
For `COc1ccc(-c2ccn(-c3ccc(NC(=O)Nc4cccc(F)c4)cc3)n2)cc1OC`, in that order: above 64 µg/mL and 32 µg/mL (≈ 74 µM).
In the same order, the values of `COc1ccc(-c2ccn(-c3ccc(NC(=S)Nc4ccccc4)cc3)n2)cc1OC` are above 64 µg/mL and 8 µg/mL (≈ 18.6 µM).
Take `COc1ccc(-c2ccn(-c3ccc(NC(=S)Nc4cc(C(F)(F)F)cc(C(F)(F)F)c4)cc3)n2)cc1OC`: the MIC is 1 µg/mL (≈ 1.77 µM) in assay [1] and 16 µg/mL (≈ 28.2 µM) in assay [2].
With `O=C(Nc1ccc(-n2ccc(-c3ccc4ccccc4c3)n2)cc1)Nc1ccc(Cl)c(Cl)c1`, the MIC in assay [1] is above 64 µg/mL; in assay [2], 64 µg/mL (≈ 135 µM).
In the same order, the values of `O=C(NCc1ccccc1)Nc1ccc(-n2ccc(-c3ccc4ccccc4c3)n2)cc1` are above 64 µg/mL and 64 µg/mL (≈ 153 µM).
In the same order, the values of `COc1ccc(-c2ccn(-c3ccc(NC(=O)Nc4ccc(Cl)cc4Cl)cc3)n2)cc1OC` are above 64 µg/mL and 16 µg/mL (≈ 33.1 µM).
For `COc1ccc(-c2ccn(-c3ccc(NC(=S)Nc4ccc(F)cc4)cc3)n2)cc1OC`, the values for the MIC in assay [1] and in assay [2] were above 64 µg/mL and 2 µg/mL (≈ 4.46 µM), respectively.
For the compound `COc1ccc(-c2ccn(-c3ccc(NC(=O)Nc4ccc(C)c(Cl)c4)cc3)n2)cc1OC`, the MIC in assay [1] is above 64 µg/mL; in assay [2], 4 µg/mL (≈ 8.64 µM).
In the same order, the values of `COc1ccc(-c2cn(-c3ccc(NC(=O)NCc4ccccc4)cc3)nn2)cc1OC` are above 64 µg/mL and 16 µg/mL (≈ 37.3 µM).
As to `COc1ccc(-c2ccn(-c3ccc(NC(=S)Nc4ccc(Cl)cc4)cc3)n2)cc1OC`, the MIC in assay [1] was above 64 µg/mL; in assay [2], 8 µg/mL (≈ 17.2 µM).
